From patent US6376518B1, “Acyl derivatives of 4-demethylpenclomedine, use thereof and preparation thereof” (Southern Research Institute, priority 1999, dated 2002)
Read-outs that look alike come from different tables or passages of the source.

Tests used:
human MX-1 mammary tumor [1] = assay: In vivo antitumor activity vs s.c.-implanted human MX-1 mammary tumor xenograft in athymic mice; details: sc MX-1
human MX-1 mammary tumor [2] = assay: In vivo antitumor activity vs i.c.-implanted human MX-1 mammary tumor xenograft in athymic mice; details: ic MX-1, Days 1-5
[3] = test system: ZR-75-1 human mammary tumor; assay: In vivo antitumor activity vs sc ZR-75-1 xenograft; details: for Tumor-Free-Surv/Total: sc ZR-75-1
MCF7 human mammary tumor = assay: In vivo antitumor activity vs sc MCF7 xenograft
[4] = test system: UISO-BCA-1 human mammary tumor; assay: In vivo antitumor activity vs sc UISO-BCA-1 xenograft; details: IP 90 mg/kg/dose, Days 16-20
HT29 human colon tumor = assay: In vivo antitumor activity vs sc HT29 xenograft
[5] = test system: NCI-H82 small cell lung tumor; assay: In vivo antitumor activity vs sc NCI-H82 xenograft; design: species or system human
[6] = test system: NCI-H460 nonsmall cell lung tumor; assay: In vivo antitumor activity vs sc NCI-H460 xenograft; design: species or system human; details: IP 90 mg/kg/dose, Days 6-10
U251 human CNS tumor = assay: In vivo antitumor activity vs sc U251 xenograft
SF-295 CNS tumor = assay: In vivo antitumor activity vs sc SF-295 xenograft; design: species or system human; details: IP 90 mg/kg/dose, Days 9-13
CAKI-1 human renal tumor = assay: In vivo antitumor activity vs sc CAKI-1 xenograft
OVCAR-5 ovarian tumor = assay: In vivo antitumor activity vs sc OVCAR-5 xenograft; design: species or system human; details: IP 90 mg/kg/dose, Days 12-16
SK-MEL-28 melanoma = assay: In vivo antitumor activity vs sc SK-MEL-28 xenograft; design: species or system human; details: IP 90 mg/kg/dose, Days 8-12
P388/CPA leukemia = assay: Antitumor activity against IP-implanted P388/CPA leukemia in mice; assay type: in vivo, murine; details: for 50-DAY SURV/TOTAL / % ILS / APPROX. NET LOG10 CHANGE IN TUMOR BURDEN AT END OF Rx / MEDIAN DAY OF DEATH: P388/CPA, Q1D × 5 (1); for MEDIAN DAY OF DEATH: dying mice only
P388/L-PAM leukemia = details: for MEDIAN DAY OF DEATH: dying mice only
P388/BCNU leukemia = assay: Antitumor activity against IP-implanted P388/BCNU leukemia in mice; details: for MEDIAN DAY OF DEATH: dying mice only
[7] = sc MCF7, IP 60 mg/kg/dose, Days 14-18
[8] = sc HT29, IP 90 mg/kg/dose, Days 14-18
[9] = sc NCI-H82, IP 60 mg/kg/dose, Days 13-17
[10] = sc CAKI-1, IP 90 mg/kg/dose, Days 19-23
[11] = highest nontoxic doses evaluated, versus DM-PEN
[12] = highest nontoxic doses evaluated, versus PEN
[13] = P388/0, IP 60.0 mg/kg/dose, Q1D × 5 (1)
[14] = P388/0, IP 90.0 mg/kg/dose, Q1D × 5 (1)
[15] = P388/0, IP 135.0 mg/kg/dose, Q1D × 5 (1)
[16] = P388/L-PAM, IP 60.0 mg/kg/dose, Q1D × 5 (1)
[17] = P388/L-PAM, IP 90.0 mg/kg/dose, Q1D × 5 (1)
[18] = P388/L-PAM, IP 135.0 mg/kg/dose, Q1D × 5 (1)
[19] = P388/BCNU, IP 60.0 mg/kg/dose, Q1D × 5 (1)
[20] = P388/BCNU, IP 90.0 mg/kg/dose, Q1D × 5 (1)
[21] = P388/BCNU, IP 135.0 mg/kg/dose, Q1D × 5 (1)

Compound: COc1nc(C(Cl)(Cl)Cl)c(Cl)c(OC(C)=O)c1Cl [DM-A-PEN]
- Tumor-Free-Surv/Total (human MX-1 mammary tumor [1]; IP 60 mg/kg/dose (LD20), Days 15-19): 3/5
- Tumor-Free-Surv/Total (human MX-1 mammary tumor [1]; IP 60 mg/kg/dose, Days 14-18): 4/5
- Dose (mg/kg) with observed lethality level (human MX-1 mammary tumor [1]; IP 60 mg/kg/dose, Days 15-19): 60 (LD20)
- T-C (human MX-1 mammary tumor [1]; IP 90 mg/kg/dose, Days 12-16): >41.0 days
- Tumor-Free-Surv/Total (human MX-1 mammary tumor [1]; IP 90 mg/kg/dose, Days 12-16): 5/5
- Tumor-Free-Surv/Total (human MX-1 mammary tumor [1]; oral (gavage) 135 mg/kg/dose, Days 13-17): 5/5
- Median % ILS (dying mice only) (human MX-1 mammary tumor [2]; IP 60 mg/kg/dose): +60%
- Median % ILS (dying mice only) (human MX-1 mammary tumor [2]; oral (gavage) 135 mg/kg/dose): +88%
- activity (in words) ([3]; s.c.-implanted ZR-75-1 human mammary tumor): moderate to modest activity
- Tumor-Free-Surv/Total ([3]; IP 60 mg/kg/dose, Days 10-14): 0/5
- Tumor-Free-Surv/Total ([3]; IP 90 mg/kg/dose, Days 8-12): 0/5
- activity (in words) (MCF7 human mammary tumor; s.c.-implanted MCF7 human mammary tumor): moderate to modest activity
- T-C (MCF7 human mammary tumor; [7]): 7.1 days
- Tumor-Free-Surv/Total (MCF7 human mammary tumor; [7]): 0/5
- T-C [4]: -2.4 days
- Tumor-Free-Surv/Total [4]: 0/5
- activity (in words) (HT29 human colon tumor; s.c.-implanted HT29 human colon tumor): moderate to modest activity
- T-C (HT29 human colon tumor; [8]): 5.8 days
- Tumor-Free-Surv/Total (HT29 human colon tumor; [8]): 0/5
- activity (in words) ([5]; s.c.-implanted NCI-H82 small cell lung tumor): moderate to modest activity
- T-C [5, 9]: 7.2 days
- Tumor-Free-Surv/Total [5, 9]: 0/5
- T-C [6]: -0.6 days
- Tumor-Free-Surv/Total [6]: 0/5
- activity (in words) (U251 human CNS tumor; s.c.-implanted U251 human CNS tumor): moderate to modest activity
- Tumor-Free-Surv/Total (U251 human CNS tumor; sc U251, IP 90 mg/kg/dose, Days 19-23): 0/5
- T-C (SF-295 CNS tumor): 0.7 days
- Tumor-Free-Surv/Total (SF-295 CNS tumor): 0/5
- activity (in words) (CAKI-1 human renal tumor; s.c.-implanted CAKI-1 human renal tumor): moderate to modest activity
- T-C (CAKI-1 human renal tumor; [10]): 8.4 days
- Tumor-Free-Surv/Total (CAKI-1 human renal tumor; [10]): 0/5
- T-C (OVCAR-5 ovarian tumor): 4.0 days
- Tumor-Free-Surv/Total (OVCAR-5 ovarian tumor): 0/5
- T-C (SK-MEL-28 melanoma): 0.7 days
- Tumor-Free-Surv/Total (SK-MEL-28 melanoma): 0/5
- 50-DAY SURV/TOTAL (P388/CPA leukemia; IP 60.0 mg/kg/dose): 0/6
- % ILS (P388/CPA leukemia; IP 60.0 mg/kg/dose): +54%
- APPROX. NET LOG10 CHANGE IN TUMOR BURDEN AT END OF Rx (P388/CPA leukemia; IP 60.0 mg/kg/dose): −1.1
- MEDIAN DAY OF DEATH (P388/CPA leukemia; IP 60.0 mg/kg/dose): 17.0
- 50-DAY SURV/TOTAL (P388/CPA leukemia; IP 90.0 mg/kg/dose): 0/6
- % ILS (P388/CPA leukemia; IP 90.0 mg/kg/dose): +86%
- APPROX. NET LOG10 CHANGE IN TUMOR BURDEN AT END OF Rx (P388/CPA leukemia; IP 90.0 mg/kg/dose): −3.1
- 50-DAY SURV/TOTAL (P388/CPA leukemia; IP 135.0 mg/kg/dose): 0/6
- APPROX. NET LOG10 CHANGE IN TUMOR BURDEN AT END OF Rx (P388/CPA leukemia; IP 135.0 mg/kg/dose): −5.7
- MEDIAN DAY OF DEATH (P388/CPA leukemia; IP 135.0 mg/kg/dose): 25.0
- more active than DM-PEN against P388/CPA (difference in log cell kill) (P388/CPA leukemia; [11]): 4.6 log cell kill
- more active than PEN against P388/CPA (difference in log cell kill) (P388/CPA leukemia; [12]): 7.4 log cell kill
- 50-DAY SURV/TOTAL (P388/0 leukemia; [13]): 0/6
- % ILS (P388/0 leukemia; [13]): +72%
- APPROX. NET LOG10 CHANGE IN TUMOR BURDEN AT END OF Rx (P388/0 leukemia; [13]): −3.1
- MEDIAN DAY OF DEATH (P388/0 leukemia; P388/0, IP 60.0 mg/kg/dose, Q1D × 5 (1), dying mice only): 19.0
- 50-DAY SURV/TOTAL (P388/0 leukemia; [14]): 0/6
- % ILS (P388/0 leukemia; [14]): +95%
- APPROX. NET LOG10 CHANGE IN TUMOR BURDEN AT END OF Rx (P388/0 leukemia; [14]): −5.0
- 50-DAY SURV/TOTAL (P388/0 leukemia; [15]): 0/6
- % ILS (P388/0 leukemia; [15]): +159%
- APPROX. NET LOG10 CHANGE IN TUMOR BURDEN AT END OF Rx (P388/0 leukemia; [15]): ~−6.8
- Toxicity / lethality level at the dosage (LD) (P388/0 leukemia; [15]): LD33
- more active than DM-PEN against P388/O (difference in log cell kill) (P388/0 leukemia; [11]): 1.9 log cell kill
- more active than PEN against P388/0 (difference in log cell kill) (P388/0 leukemia; [12]): 0.4 log cell kill
- 50-DAY SURV/TOTAL (P388/L-PAM leukemia; [16]): 0/6
- % ILS (P388/L-PAM leukemia; [16]): +14%
- APPROX. NET LOG10 CHANGE IN TUMOR BURDEN AT END OF Rx (P388/L-PAM leukemia; [16]): +1.2
- MEDIAN DAY OF DEATH (P388/L-PAM leukemia; [16]): 18.0
- 50-DAY SURV/TOTAL (P388/L-PAM leukemia; [17]): 0/6
- % ILS (P388/L-PAM leukemia; [17]): +14%
- APPROX. NET LOG10 CHANGE IN TUMOR BURDEN AT END OF Rx (P388/L-PAM leukemia; [17]): +1.2
- MEDIAN DAY OF DEATH (P388/L-PAM leukemia; [17]): 18.0
- 50-DAY SURV/TOTAL (P388/L-PAM leukemia; [18]): 0/6
- % ILS (P388/L-PAM leukemia; [18]): +35%
- APPROX. NET LOG10 CHANGE IN TUMOR BURDEN AT END OF Rx (P388/L-PAM leukemia; [18]): −0.8
- Toxicity / lethality level at the dosage (LD) (P388/L-PAM leukemia; [18]): LD17
- MEDIAN DAY OF DEATH (P388/L-PAM leukemia; [18]): 19.0
- more active than PEN or DM-PEN against P388/L-PAM (difference in log cell kill) (P388/L-PAM leukemia; highest nontoxic doses evaluated, versus PEN or DM-PEN): 0.2-0.3 log cell kill
- activity in the P388/L-PAM tumor model (in words) (P388/L-PAM leukemia; mouse, in vivo): none of the three showed significant activity
- 50-DAY SURV/TOTAL (P388/BCNU leukemia; [19]): 1/6
- % ILS (P388/BCNU leukemia; [19]): +44%
- APPROX. NET LOG10 CHANGE IN TUMOR BURDEN AT END OF Rx (P388/BCNU leukemia; [19]): 0
- MEDIAN DAY OF DEATH (P388/BCNU leukemia; [19]): 13.0
- 50-DAY SURV/TOTAL (P388/BCNU leukemia; [20]): 0/6
- % ILS (P388/BCNU leukemia; [20]): +77%
- APPROX. NET LOG10 CHANGE IN TUMOR BURDEN AT END OF Rx (P388/BCNU leukemia; [20]): −2.3
- MEDIAN DAY OF DEATH (P388/BCNU leukemia; [20]): 16.0
- 50-DAY SURV/TOTAL (P388/BCNU leukemia; [21]): 0/6
- APPROX. NET LOG10 CHANGE IN TUMOR BURDEN AT END OF Rx (P388/BCNU leukemia; [21]): −4.1
- Toxicity / lethality level at the dosage (LD) (P388/BCNU leukemia; [21]): LD17
- MEDIAN DAY OF DEATH (P388/BCNU leukemia; [21]): 21.0
- more active than DM-PEN against P388/BCNU (difference in log cell kill) (P388/BCNU leukemia; [11]): 1.5 log cell kill
- more active than PEN against P388/BCNU (difference in log cell kill) (P388/BCNU leukemia; [12]): 3.5 log cell kill
